≈ marks a conversion by molar mass, not a printed value.
Assay: Aqueous solubility of co-crystals (saturated solutions in water, liquid chromatography)
Format: physicochemical
Conditions: thermodynamic from solid, time point not stated, read-out: solubility for the Free Base (comparison)
Description: The aqueous solubility of the co-crystals is determined by creating saturated solutions containing individual co-crystals in water. The saturated solutions are shaken for 24 hours at room temperature. Samples are taken at two timepoints (2 hours and 24 hours) and are filtered and diluted (acetonitrile/water 1:1) before measurement with liquid chromatography.

`CN1C(=O)c2c(nn(Cc3ccc(-c4cccc(F)n4)cc3)c2Nc2ccccc2)N2C1=N[C@@H]1CCC[C@@H]12` [Free Base, (6aR,9aS)-5,6a,7,8,9,9a-hexahydro-5-methyl-3-(phenylamino)-2-((4-(6-fluoropyridin-2-yl)phenyl)methyl)-cyclopent[4,5]imidazo[1,2-a]pyrazolo[4,3-e]pyrimidin-4(2H)-one] gave a solubility of 1 µg/mL (≈ 1.97 µM).

Source: patent US20240383909A1, “CO-CRYSTALS” (INTRA-CELLULAR THERAPIES, INC., priority 2021, published 2024)
